system: benzodiazepine binding site; test: not given; conditions: cited from earlier work

Row | SMILES | block of GABA-agonist enhancement of benzodiazepine binding
1 | CN1CCc2cc3c(cc2[C@H]1[C@@H]1OC(=O)c2c1ccc1c2OCO1)OCO3 [(+) bicuculline] | blocked
2 | CN1CCc2cc3c(cc2[C@@H]1[C@H]1OC(=O)c2c1ccc1c2OCO1)OCO3 [(-) bicuculline] | much less active

target: GABAa receptor; test: GABAa receptor binding assay: inhibition of 3H-RO15-1788 (3H-Flumazenil) binding to rat cortical tissue; conditions: 0.5 nM 3H-RO15-1788, 30 min at 4° C., nonspecific binding with 1.0 μM diazepam
Experimental: The pharmaceutical utility of compounds of this invention are indicated by the following assay for GABAa receptor activity.
Assays are carried out as described in Thomas and Tallman (J. Bio. Chem. 156: 9838-9842, J. Neurosci. 3:433-440, 1983). Rat cortical tissue is dissected and homogenized in 25 volumes (w/v) of 0.05M Tris HCl buffer (pH 7.4 at 4° C.). The tissue homogenate is centrifuged in the cold (4°) at 20,000×g for 20'. The supernatant is decanted and the pellet is rehomogenized in the same volume of buffer and again centrifuged at 20,000×g. The supernatant is decanted and the pellet is frozen at -20° C. overnight. The pellet is then thawed and rehomogenized in 25 volume (original wt/vol) of buffer and the procedure is carried out twice. The pellet is finally resuspended in 50 volumes (w/vol of 0.05M Tris HCl buffer (pH 7.4 at […]).
Incubations contain 100 μl of tissue homogenate, 100 μl of radioligand 0.5 nM (^3 H-RO15-1788 [^3 H-Flumazenil] specific activity 80 Ci/mmol), drug or blocker and buffer to a total volume of 500 μl. Incubations are carried for 30 min at 4° C. then are rapidly filtered through GFB filters to separate free and bound ligand. Filters are washed twice with fresh 0.05M Tris HCl buffer (pH 7.4 at 4° C.) and counted in a liquid scintillation counter. 1.0 μM diazepam is added to some tubes to determine nonspecific binding. Data are collected in triplicate determinations, averaged and % inhibition of total specific binding is calculated. Total Specific Binding=Total-Nonspecific. In some cases, the amounts of unlabeled drugs is varied and total displacement curves of binding are carried out. Data are converted to a form for the calculation of IC50 and Hill Coefficient (nH).

Row | SMILES | IC50 [nM]
3 | COc1ccc(F)c(-c2cnc3[nH]c4c(c3n2)CCCC4)c1 [Compound 1, 2-(2-Fluoro-5-methoxyphenyl)-6,7,8,9-tetrahydro-5H-indolo[2,3-b]pyrazine] | 200
4 | COc1ccc(-c2cnc3[nH]c4ccccc4c3n2)c(F)c1 [Compound 12, 2-(2-Fluoro-4-methoxyphenyl)-5H-indolo[2,3-b]pyrazine] | 533
5 | COc1ccc(-c2cnc3[nH]c4c(c3n2)CCCC4)c(F)c1 [Compound 11, 2-(2-Fluoro-4-methoxyphenyl)-6,7,8,9-tetrahydro-5H-indolo[2,3-b]pyrazine] | 29
6 | Fc1ccccc1-c1cnc2[nH]c3c(c2n1)CCCC3 [Compound 5, 2-(2-Fluorophenyl)-6,7,8,9-tetrahydro-5H-indolo[2,3-b]pyrazine] | 45

Reference: US5286860A (priority 1992, dated 1994)
